Source: patent publication US12257260B2, “Pharmaceutical use of anemoside B4 against acute gouty arthritis” (priority 2018, dated 2025)

How the values were obtained:
[1] = test system: rats with acute gouty arthritis induced by MSU; test: Example 1: effect of anemoside B4 on sodium urate (MSU)-induced acute gouty arthritis in rats, joint swelling; format: in vivo, SD rats; set-up: key to Swelling degree 2 h after modelling / Swelling degree 6 h after modelling / Swelling degree 8 h after modelling / Swelling degree 12 h after modelling / Swelling degree 24 h after modelling: swelling = joint volume after modeling − joint volume before modeling
Method: 2.1 Preparation of sodium urate (MSU) crystals and suspension: 5 ml of 1 mol/L NaOH solution and 800 mg sodium urate were added to 155 ml depyrogenated sterile water for injection and heated to boiling. Sodium urate was completely dissolved and then cooled down naturally under stirring. After that, 1 mol/L HCl was dropped to pH 7.0, then the solution became milky white, and was immediately centrifuged at 3000 r/min for 2 min. The crystals were collected, dried in an oven at 60° C., placed in an EP tube, and stored at 4° C. Prior to use, MSU crystals were autoclaved at 121° C. for 30 min, and dispersed in PBS to make the required concentration, i.e. to obtain a suspension of sodium urate (MSU). The film preparation of the suspension was performed, and the long fusiform crystals can be seen under the optical microscope.
2.2 Grouping, administration, and model establishment: 60 rats were randomly divided into 6 groups according to their body weights, 10 rats for each group: (1) model group; (2) colchicine group (0.3 mg/kg); (3) B4 subcutaneous injection group (5 mg/kg*2); (4) B4 intravenous injection group (5 mg/kg*2); (5) B4 intramuscular injection high-dose group (5 mg/kg*2); (6) B4 intramuscular injection low-dose group (2.5 mg/kg*2); normal group (5 rats). The normal group and the model group were injected with the same volume of normal saline, and each of B4 groups was given corresponding drugs by the corresponding route of administration for 3 days, twice a day, with an interval of 4 hours between two times.
Modeling method: on the day of modeling, the model was initially established 1 h after administrating in the drug groups. Among them: • (1) Model group: each rat was injected with 40 mg/mL MSU suspension to the back of the right ankle joint at a dose of 0.2 mL/rat; • (2) Colchicine group: the colchicine group was administered once on the day of modeling, and 1 h after administration, each rat was injected with 40 mg/mL MSU suspension on the dorsal side of the right ankle joint at a dose of 0.2 mL/mouse; • (3)-(6) B4 groups: 1 h after the last administration, each rat was injected with 40 mg/mL MSU suspension on the dorsal side of the right ankle joint at 0.2 mL/mouse, and 3 h after modeling, each test group was further administrated once.
2.3 Measurement of joint swelling: before modeling and 2 h, 4 h, 6 h, 8 h, 12 h, 24 h after modeling, the volume of the right ankle joint was measured, and the swelling degree was calculated by “joint volume after modeling-joint volume before modeling”.

[2] = test system: rats with acute gouty arthritis induced by MSU; test: Example 2: further investigation at reduced dose, sodium urate (MSU)-induced acute gouty arthritis in rats, joint swelling; format: in vivo, SD rats; set-up: key to Swelling degree 2 h after modelling / Swelling degree 4 h after modelling / Swelling degree 6 h after modelling: joint volume after modeling minus joint volume before modeling
Description: Based on Example 1, the dosage of anemoside B4 was reduced, and the effect on alleviating the joint swelling of acute gouty arthritis caused by sodium urate in rats was further investigated. • 1. Experimental materials: same as item “1.” in example 1. • 2. Experimental method • 2.1 Preparation of sodium urate (MSU) crystals and suspension: same as item “2.1” in Example 1. • 2.2. Grouping, administration, and model establishment: • 2.2.1 Grouping: 50 rats were randomly divided into 5 groups according to their body weights, 10 rats for each group: • (1) model group; (2) colchicine group (0.15 mg/kg); (3) B4 subcutaneous injection group (2.5 mg/kg*2); (4) B4 intramuscular injection group (2.5 mg/kg*2); (5) B4 intravenous injection group (2.5 mg/kg*2). • 2.2.2 Administration: The model group was injected with the same volume of normal saline, and each test group (including B4 groups and colchicine group) was administered only on the day of model building. Among them, colchicine group was administered once, while each B4 group was successively administered two times with an interval of 4 h. • 2.2.3 Model establishment and measurement of joint swelling: the model was initially established 1 h after administrating in the drug groups, and the method was same as that in example 1. Before modeling and 2 h, 4 h, 6 h, 8 h, and 12 h after modeling, the volume of the right ankle joint was measured, and the swelling degree was calculated by “joint volume after modeling joint volume before modeling”. • 3.

[3] = B4 intramuscular high-dose group, 5 mg/kg * 2
[4] = B4 intramuscular low-dose group, 2.5 mg/kg * 2
[5] = B4 intravenous injection group, 5 mg/kg * 2
[6] = B4 subcutaneous injection group, 5 mg/kg * 2
[7] = B4 intramuscular injection group, 2.5mg/kg * twice
[8] = B4 intravenous injection group, 2.5mg/kg * twice
[9] = B4 subcutaneous injection group, 2.5 mg/kg * twice

SMILES: C=C(C)C1CCC2(C(=O)O[C@@H]3O[C@H](CO[C@@H]4O[C@H](CO)[C@@H](O[C@@H]5O[C@@H](C)[C@H](O)[C@@H](O)[C@H]5O)[C@H](O)[C@H]4O)[C@@H](O)[C@H](O)[C@H]3O)CC[C@]3(C)[C@H](CC[C@@H]4[C@@]5(C)CC[C@H](OC6OC[C@H](O)[C@H](O)[C@H]6O[C@@H]6O[C@@H](C)[C@H](O)[C@@H](O)[C@H]6O)[C@@](C)(CO)[C@@H]5CC[C@]43C)[C@@H]12 (stereo partly shown) [B4, anemoside B4]
- Swelling degree 2 h after modelling [1, 3]: 0.15 ± 0.10
- Swelling degree 4 h after modelling [1, 3]: 0.15 ± 0.09^Δ
- Swelling degree 6 h after modelling [1, 3]: 0.19 ± 0.11
- Swelling degree 8 h after modelling [1, 3]: 0.28 ± 0.11
- Swelling degree 12 h after modelling [1, 3]: 0.33 ± 0.16
- Swelling degree 24 h after modelling [1, 3]: 0.35 ± 0.23
- swelling degree of the joints compared with the model group ([1]; B4 intramuscular injection group, 2-4 h after modelling): significantly reduced
- Swelling degree 2 h after modelling [1, 4]: 0.12 ± 0.07^Δ
- Swelling degree 4 h after modelling [1, 4]: 0.11 ± 0.11^Δ
- Swelling degree 6 h after modelling [1, 4]: 0.20 ± 0.11
- Swelling degree 8 h after modelling [1, 4]: 0.32 ± 0.18
- Swelling degree 12 h after modelling [1, 4]: 0.38 ± 0.23
- Swelling degree 24 h after modelling [1, 4]: 0.55 ± 0.35
- Swelling degree 4 h after modelling [1, 5]: 0.08 ± 0.18^Δ
- Swelling degree 6 h after modelling [1, 5]: 0.13 ± 0.14^Δ
- Swelling degree 8 h after modelling [1, 5]: 0.23 ± 0.21
- Swelling degree 12 h after modelling [1, 5]: 0.22 ± 0.19
- Swelling degree 24 h after modelling [1, 5]: 0.28 ± 0.21
- Swelling degree 2 h after modelling ([1]; B4 intravenous injection group, 5 mg/kg * 2, 3 days, right ankle joint volume after minus before modelling): 0.17 ± 0.14
- swelling degree of the joints compared with the model group ([1]; B4 intravenous injection group, 4-6 h after modelling): significantly reduced
- Swelling degree 2 h after modelling [1, 6]: 0.10 ± 0.08^Δ
- Swelling degree 4 h after modelling [1, 6]: 0.07 ± 0.08^ΔΔ
- Swelling degree 6 h after modelling [1, 6]: 0.13 ± 0.09^Δ
- Swelling degree 8 h after modelling [1, 6]: 0.21 ± 0.13
- Swelling degree 12 h after modelling [1, 6]: 0.27 ± 0.15
- Swelling degree 24 h after modelling [1, 6]: 0.28 ± 0.16
- swelling degree of the joints compared with the model group ([1]; B4 subcutaneous injection group, 2-6 h after modelling): significantly reduced
- effect on reducing the acute joint swelling caused by sodium urate (MSU) crystals, compared with colchicine ([1]; administration routes and dosages of Example 1): equivalent to that of colchicine
- joint swelling of acute gouty arthritis (conclusion) ([1]; subcutaneous, intramuscular and intravenous injection): significantly alleviate
- alleviating the joint swelling of acute gouty arthritis (conclusion) ([2]; B4 injection, Example 2): significant effect
- Swelling degree 2 h after modelling [2, 7]: 0.099 ± 0.08
- Swelling degree 4 h after modelling [2, 7]: 0.130 ± 0.07
- Swelling degree 6 h after modelling [2, 7]: 0.090 ± 0.07
- Swelling degree 8 h after modelling [2, 7]: 0.134 ± 0.10^Δ
- Swelling degree 12 h after modelling [2, 7]: 0.097 ± 0.17^Δ
- swelling degree of the joint compared with the model group ([2]; B4 intramuscular injection group, 8-12 h after modelling): obviously reduced and significantly different
- joint swelling degree, rank among groups ([2]; B4 intramuscular injection group, 12 h after modeling): smallest in all groups
- Swelling degree 2 h after modelling [2, 8]: 0.113 ± 0.09
- Swelling degree 4 h after modelling [2, 8]: 0.099 ± 0.10
- Swelling degree 6 h after modelling [2, 8]: 0.108 ± 0.18
- Swelling degree 8 h after modelling [2, 8]: 0.113 ± 0.24^Δ
- Swelling degree 12 h after modelling [2, 8]: 0.124 ± 0.27^Δ
- swelling degree of the joint compared with the model group ([2]; B4 intravenous injection group, 8-12 h after modelling): obviously reduced and significantly different
- Swelling degree 4 h after modelling [2, 9]: 0.008 ± 0.11
- Swelling degree 6 h after modelling [2, 9]: 0.040 ± 0.09^Δ
- Swelling degree 8 h after modelling [2, 9]: 0.103 ± 0.18^Δ
- Swelling degree 12 h after modelling [2, 9]: 0.103 ± 0.16^Δ
- Swelling degree 2 h after modelling ([2]; B4 subcutaneous injection group, 2.5 mg/kg * twice, day of modelling only): 0.067 ± 0.10
- joint swelling degree, rank among groups ([2]; B4 subcutaneous injection group, 2-8 h after modeling): smallest in all groups
- swelling degree of the joint compared with the model group ([2]; B4 subcutaneous injection group, 6-12 h after modelling): obviously reduced and significantly different
- effect on reducing the joint swelling of acute gouty arthritis caused by sodium urate, compared with colchicine ([2]; administration routes and dosages of Example 2): equivalent to that of colchicine

SMILES: COc1cc2c(c(OC)c1OC)-c1ccc(OC)c(=O)cc1[C@@H](NC(C)=O)CC2 [Colchicine, colchicine, reference compound]
- Swelling degree 4 h after modelling ([1]; Colchicine group, 0.3 mg/kg): 0.13 ± 0.11^Δ
- Swelling degree 6 h after modelling ([1]; Colchicine group, 0.3 mg/kg): 0.19 ± 0.14
- Swelling degree 8 h after modelling ([1]; Colchicine group, 0.3 mg/kg): 0.25 ± 0.20
- Swelling degree 12 h after modelling ([1]; Colchicine group, 0.3 mg/kg): 0.35 ± 0.23
- Swelling degree 24 h after modelling ([1]; Colchicine group, 0.3 mg/kg): 0.33 ± 0.11
- Swelling degree 2 h after modelling ([1]; Colchicine group, 0.3 mg/kg, once on the day of modeling): 0.14 ± 0.08
- swelling degree of the joints compared with the model group ([1]; colchicine group, 4 h after modelling): significantly reduced
- Swelling degree 4 h after modelling ([2]; Colchicine group, 0.15 mg/kg): 0.082 ± 0.11
- Swelling degree 6 h after modelling ([2]; Colchicine group, 0.15 mg/kg): 0.056 ± 0.11^Δ
- Swelling degree 8 h after modelling ([2]; Colchicine group, 0.15 mg/kg): 0.135 ± 0.13^Δ
- Swelling degree 12 h after modelling ([2]; Colchicine group, 0.15 mg/kg): 0.128 ± 0.13^Δ
- Swelling degree 2 h after modelling ([2]; Colchicine group, 0.15 mg/kg, once on the day of model building): 0.155 ± 0.07
- swelling degree of the joint compared with the model group ([2]; colchicine group, 6-12 h after modelling): obviously reduced and significantly different
